pIC50, pKi: −log10 of the molar value.
Legend:
[1] = target: T1, progesterone receptor (PR) (Homo sapiens, UniProt P06401); assay: PR whole cell binding in T47D cells with 3H-progesterone as labeled ligand; conditions: live, intact T47D cells; 3H-progesterone labeled ligand
T1 construct: in live, intact (whole) cells using the human breast carcinoma T47D cell line; endogenous in cells; host or cells: T47D human breast carcinoma cells
T1 sequence (P06401 1-933): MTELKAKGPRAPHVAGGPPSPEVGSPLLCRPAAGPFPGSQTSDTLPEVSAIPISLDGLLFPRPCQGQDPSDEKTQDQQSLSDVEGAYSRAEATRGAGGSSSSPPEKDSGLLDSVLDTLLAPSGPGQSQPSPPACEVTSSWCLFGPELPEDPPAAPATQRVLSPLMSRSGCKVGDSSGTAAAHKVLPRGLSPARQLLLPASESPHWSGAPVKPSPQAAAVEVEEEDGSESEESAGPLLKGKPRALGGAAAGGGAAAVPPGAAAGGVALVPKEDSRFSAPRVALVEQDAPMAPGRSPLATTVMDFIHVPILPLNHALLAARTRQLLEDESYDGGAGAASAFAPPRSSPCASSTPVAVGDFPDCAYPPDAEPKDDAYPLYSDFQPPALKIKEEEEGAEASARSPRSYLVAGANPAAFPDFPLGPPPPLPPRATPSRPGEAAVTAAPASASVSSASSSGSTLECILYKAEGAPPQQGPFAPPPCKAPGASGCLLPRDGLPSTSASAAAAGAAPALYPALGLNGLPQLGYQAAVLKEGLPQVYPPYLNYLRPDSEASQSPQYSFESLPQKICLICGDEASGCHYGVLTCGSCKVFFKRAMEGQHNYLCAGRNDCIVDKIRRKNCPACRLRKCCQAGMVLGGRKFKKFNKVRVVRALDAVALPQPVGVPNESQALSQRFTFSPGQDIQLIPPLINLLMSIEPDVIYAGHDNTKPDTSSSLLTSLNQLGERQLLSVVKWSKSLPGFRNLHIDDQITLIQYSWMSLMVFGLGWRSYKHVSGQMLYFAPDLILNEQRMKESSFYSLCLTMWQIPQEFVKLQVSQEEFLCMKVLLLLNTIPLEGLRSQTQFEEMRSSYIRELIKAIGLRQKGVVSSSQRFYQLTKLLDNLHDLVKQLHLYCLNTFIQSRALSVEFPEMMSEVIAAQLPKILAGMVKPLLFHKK
Excerpt: (§1) The compound 4-(2-(4,4-dimethyl-2-oxooxazolidin-3-yl)thiazol-4-yl)benzonitrile has shown activity for modulating PR activity in assays to identify progestins or antiprogestins by (a) determining effect on alkaline phosphatase activity in T47D cells or (b) evaluating the progesterone receptor (PR) binding activity in live, intact (whole) cells using the human breast carcinoma T47D cell line and ^3H-progesterone as the labeled ligand (data presented in Table below).

[2] = target: T1, progesterone receptor (PR); assay: T47D alkaline phosphatase activity assay to identify progestins or antiprogestins; assay type: cell-based; conditions: T47D cells
Excerpt: as §1

[3] = Solubility in solvent at room temperature, centrifuged after 24 hours, supernatant assayed; assay type: physicochemical
Experimental: In another embodiment, the solvent is 2% Tween® 80 reagent in water, wherein Tween® 80 is a polyoxyethylene (20) sorbitan monooleate. One of skill in the art would readily be able to measure the solubility of Form II using techniques known in the art. Typically, the solubility was measured by adding Form II to a solvent at room temperature, centrifuging the solution after 24 hours, and assaying the supernatant. This increased solubility is observed when Form II is immersed in water.
In this example, the solubility of polymorph Form II of 4-(2-(4,4-dimethyl-2-oxooxazolidin-3-yl)thiazol-4-yl)benzonitrile in water is measured.

[4] = Hygroscopicity (ability to absorb water/moisture from the air); assay type: physicochemical; conditions: normal, atmospheric conditions
Excerpt: One of skill in the art would readily be able to measure the hygroscopicity of Form II using techniques known in the art including, without limitation, dynamic vapor sorption (DVS) at relative humidities ranging from 0 to 100%. This decreased hygroscopic property of Form II thereby permits longer shelf life and storage of the solid compound in comparison to Form I.

pKi [1] | pIC50 [2] | Solubility compared with Form I ([3]; solvents such as water and hydrophilic non-ionic surfactants (2% Tween 80 in water), room temperature, 24 hours) | Solubility in water relative to Form I ([3]; water) | Hygroscopicity compared with Form I [4] | SMILES
8.31 | 8.51 | – | – | – | CC1(C)COC(=O)N1c1nc(-c2ccc(C#N)cc2)cs1 [4-(2-(4,4-dimethyl-2-oxooxazolidin-3-yl)thiazol-4-yl)benzonitrile]
– | – | more soluble | 4 times | less hygroscopic than Form I | CC1(C)COC(=O)N1c1nc(-c2ccc(C#N)cc2)cs1 [Form II, 4-(2-(4,4-dimethyl-2-oxooxazolidin-3-yl)thiazol-4-yl)benzonitrile]

Reference: patent US20080234340A1, “Synthesis and characterization of polymorph form II of 4-(2-(4,4-dimethyl-2-oxooxazolidin-3-YL)thiazol-4-YL)benzonitrile” (Wyeth, priority 2007, published 2008)
